Measured values: US5624897A, “Cyclic depsipeptides having 18 ring atoms, and their use for combating endoparasites” (Bayer Aktiengesellschaft, priority 1993, dated 1997)

Legend:
[1] = tested on: Trichostrongylus colubriformis; test: In vivo nematode test Trichostrongylus colubriformis/sheep; settings: experimentally infected sheep, treated after prepatent period; pure active compound orally and/or intravenously; dose at which nematode egg excretion with the faeces stops completely
Protocol: Trichostrongylus colubriformis/Sheep
Sheep which have been infected experimentally with Trichostrongylus colubriformis were treated after the prepatent period had elapsed. The active compounds in the form of the pure active compound were administered orally and/or intravenously.
(§1) The degree of effectiveness is determined by quantitative determination of the nematode eggs excreted with the faeces before and after the treatment.
(§2) If, after the treatment, egg excretion stops completely, the nematodes were aborted or damaged to such an extent that they no longer produce eggs (dosis effectiva).

[2] = tested on: Haemonchus contortus; test: In vivo nematode test Haemonchus contortus/sheep; settings: experimentally infected sheep, treated after prepatent period; pure active compound orally and/or intravenously; dose at which nematode egg excretion with the faeces stops completely
Protocol: Haemonchus contortus/Sheep
Sheep which have been infected experimentally with Haemonchus contortus were treated after the prepatent period had elapsed. The active compounds in the form of the pure active compound were administered orally and/or intravenously.
as §1, §2

CC[C@H](C)[C@H]1C(=O)O[C@H](C)C(=O)N(C)[C@@H](C)C(=O)O[C@H](C)C(=O)N(C)[C@@H]([C@@H](C)CC)C(=O)O[C@H](C)C(=O)N1C [Example 1, Cyclo(-N-methyl-L-alanyl-D-lactyl-N-methyl-L-isoleucyl-D-lactyl-N-methyl-L- isoleucyl-D-lactyl-)]
Dosis effectiva [1]: 10 mg/kg | Dosis effectiva [2]: 10 mg/kg
